Test results reported in the NIST ThermoML archive (doi:10.1016/j.jct.2011.05.033).

Experiments:
[1] = excess molar enthalpy (molar enthalpy of mixing); xn = mol fraction of the nth substance listed; conditions: 298.15 K, 101 kPa, Liquid, Isothermal Titration Calorimeter
[2] = xn = mol fraction of the nth substance listed; conditions: 298.15 K, 101 kPa, Liquid, Vibrating tube method

CCCCCC[n+]1ccn(C)c1.O=S(=O)([N-]S(=O)(=O)C(F)(F)F)C(F)(F)F + CCCCCCO
[1]
Conditions | excess molar enthalpy [kcal/mol]
x2 = 0.0045 | 0.00956
x2 = 0.0089 | 0.0189
x2 = 0.0132 | 0.0282
x2 = 0.0176 | 0.037
x2 = 0.0219 | 0.0459
x2 = 0.0261 | 0.0545
x2 = 0.0304 | 0.0629
x2 = 0.0345 | 0.071
x2 = 0.0387 | 0.0791
x2 = 0.0428 | 0.0868
x2 = 0.0469 | 0.0946
x2 = 0.0509 | 0.102
x2 = 0.0549 | 0.109
x2 = 0.0589 | 0.117
x2 = 0.0629 | 0.124

CCn1cc[n+](C)c1.O=S(=O)([N-]S(=O)(=O)C(F)(F)F)C(F)(F)F + CCCCCCO
[1]
Conditions | excess molar enthalpy [kcal/mol]
x2 = 0.0036 | 0.00621
x2 = 0.0072 | 0.0117
x2 = 0.0107 | 0.0165
x2 = 0.0142 | 0.0206
x2 = 0.0177 | 0.0239
x2 = 0.0212 | 0.0265
x2 = 0.0246 | 0.0287

CCCCCC[n+]1ccn(C)c1.O=S(=O)([N-]S(=O)(=O)C(F)(F)F)C(F)(F)F + CCCCO
[1]
Conditions | excess molar enthalpy [kcal/mol]
x2 = 0.0064 | 0.0141
x2 = 0.0127 | 0.0277
x2 = 0.019 | 0.0411
x2 = 0.0252 | 0.0543
x2 = 0.0313 | 0.0672
x2 = 0.0373 | 0.0796
x2 = 0.0432 | 0.092
x2 = 0.0491 | 0.104
x2 = 0.0549 | 0.116
x2 = 0.0606 | 0.127
x2 = 0.0663 | 0.138
x2 = 0.0719 | 0.149
x2 = 0.0774 | 0.16
x2 = 0.0829 | 0.171
x2 = 0.0883 | 0.181

CCn1cc[n+](C)c1.O=S(=O)([N-]S(=O)(=O)C(F)(F)F)C(F)(F)F + CCCCO
[1]
Conditions | excess molar enthalpy [kcal/mol]
x2 = 0.0051 | 0.0103
x2 = 0.0102 | 0.0203
x2 = 0.0152 | 0.0304
x2 = 0.0201 | 0.0399
x2 = 0.025 | 0.0495
x2 = 0.0299 | 0.0586
x2 = 0.0347 | 0.0676
x2 = 0.0395 | 0.0765
x2 = 0.0442 | 0.0851
x2 = 0.0488 | 0.0935
x2 = 0.0535 | 0.102
x2 = 0.0581 | 0.11
x2 = 0.0626 | 0.118
x2 = 0.0671 | 0.125
x2 = 0.0715 | 0.133

CCCCCC[n+]1ccn(C)c1.O=S(=O)([N-]S(=O)(=O)C(F)(F)F)C(F)(F)F + CCO
[1]
Conditions | excess molar enthalpy [kcal/mol]
x2 = 0.0095 | 0.0195
x2 = 0.0189 | 0.0383
x2 = 0.0281 | 0.0564
x2 = 0.0371 | 0.0739
x2 = 0.046 | 0.0907
x2 = 0.0547 | 0.107
x2 = 0.0632 | 0.123
x2 = 0.0716 | 0.138
x2 = 0.0798 | 0.152
x2 = 0.0879 | 0.166
x2 = 0.0959 | 0.18
x2 = 0.1037 | 0.193
x2 = 0.1114 | 0.206
x2 = 0.1189 | 0.218
x2 = 0.1263 | 0.23

CCn1cc[n+](C)c1.O=S(=O)([N-]S(=O)(=O)C(F)(F)F)C(F)(F)F + CCO
[1]
Conditions | excess molar enthalpy [kcal/mol]
x2 = 0.0083 | 0.0143
x2 = 0.0165 | 0.0282
x2 = 0.0245 | 0.0416
x2 = 0.0324 | 0.0545
x2 = 0.0402 | 0.0669
x2 = 0.0479 | 0.0791
x2 = 0.0554 | 0.0908
x2 = 0.0628 | 0.102
x2 = 0.0702 | 0.113
x2 = 0.0773 | 0.124
x2 = 0.0844 | 0.134
x2 = 0.0914 | 0.144
x2 = 0.0983 | 0.154
x2 = 0.105 | 0.163
x2 = 0.1117 | 0.172

CCCCCCCCCCn1cc[n+](C)c1.O=S(=O)([N-]S(=O)(=O)C(F)(F)F)C(F)(F)F + CO
Conditions | excess molar enthalpy [kcal/mol] | mass density [kg/m3]
[1], x2 = 0.0171 | 0.0146 | –
[1], x2 = 0.0336 | 0.028 | –
[1], x2 = 0.0496 | 0.0402 | –
[1], x2 = 0.0651 | 0.0511 | –
[1], x2 = 0.08 | 0.0614 | –
[1], x2 = 0.0945 | 0.0705 | –
[1], x2 = 0.1086 | 0.0789 | –
[1], x2 = 0.1222 | 0.0863 | –
[1], x2 = 0.1354 | 0.0932 | –
[1], x2 = 0.1482 | 0.0994 | –
[1], x2 = 0.1606 | 0.105 | –
[1], x2 = 0.1727 | 0.11 | –
[1], x2 = 0.1844 | 0.115 | –
[1], x2 = 0.1958 | 0.119 | –
[1], x2 = 0.2069 | 0.123 | –
[2], x1 = 0.0001 | – | 789.6
[2], x1 = 0.0233 | – | 883.6
[2], x1 = 0.0513 | – | 963.28
[2], x1 = 0.1054 | – | 1054.89
[2], x1 = 0.1417 | – | 1094.51
[2], x1 = 0.1679 | – | 1115.13
[2], x1 = 0.2161 | – | 1147.23
[2], x1 = 0.2452 | – | 1163.25
[2], x1 = 0.297 | – | 1183.51
[2], x1 = 0.4686 | – | 1228.19
[2], x1 = 0.5186 | – | 1236.02
[2], x1 = 0.762 | – | 1263.65
[2], x1 = 0.7868 | – | 1264.97
[2], x1 = 0.8756 | – | 1271.49
[2], x1 = 0.9503 | – | 1275.73
[2], x1 = 1 | – | 1278.57
